Experimental data from patent US20190169134A1, “NOVEL CLASS OF QUINOLONE HETEROCYCLIC AROMATIC MOLECULES FOR CANCER TREATMENT” (RenoTarget Therapeutics, Inc., priority 2016, published 2019).

Assays:
tested cancer cell lines = experiment: Cell growth inhibition by SRB method, tested cancer cell lines overall; format: cell-based, human; conditions: data not provided
Source text: Six human cancer cell lines have been used to evaluate effects of the compounds on proliferation of cancer cells. These cell lines include HCC827-P (or HCC827 parent cells), human non-small lung cancer cells, Parent NSCLC HCC827 cell line (which harbors EGFR gene amplification, Exon 19 (E19) deletion, and Exon 21 mutation (Wang, Ramakrishnan et al. 2010), and is an EGFRi sensitive cell line (Kim, Kim et al. 2010)); HCC827-TR16 (Tarceva-resistant HCC727 cell line), HCC827-OR16 (AZD9291-resistant HCC727 cell line), LNCaP (human prostate cancer cells—a hormonal-therapy sensitive cell line (Wang, Liu et al. 1997)); 22RV1 (human prostate cancer cells—a hormonal-therapy resistant cell line (Sramkoski, Pretlow et al. 1999)); and ACHN (human renal adenocarcinoma cells (Park, Jung et al. 2003)). LNCaP cells and 22RV1 cells were purchased from the American Type Culture Collection (Rockville, Md.) and others were gifts of friends.
All cell lines were maintained in RPMI-1640 (GIBCO, Gaithersburg, Md.) with 10% heat-inactivated bovine serum (FBS) (Wang, Ossowski et al. 2004).
Sulforhodamine B (SRB) was used to estimate cell growth as described previously (Skehan, Storeng et al. 1990). Briefly, cells grown exponentially were aliquoted into 96-well plates at a density of 2,500 to 5,000 cells/200 μl per well in RPMI 1640 medium containing 10% FBS. After twenty-four hours, the cells were exposed to indicated concentrations of tested compounds for 72 hrs or otherwise as indicated. The cells were then fixed with 10% trichloride acetic acid for 2 h at 4° C. The 10% trichloride acetic acid was removed, and the dishes were washed 5 times with tape water, and air-dried. The fixed and dried cells were then stained with 0.4% SRB in 1% acetic acid for 25 min, and the dishes were washed 5 times with 1% acetic acid and air-dried overnight. 200 μl of 10 mM of Tris buffer (pH 10.0) were added, and the dishes were rotated to completely dissolve the color. Absorbance at 570 nm, with a reference wavelength 690 nm, was measured on a 96-well microplate reader (SPECTRO Star^Nano, BMG Labtech). Mean, standard deviation (SD) and the percent of growth inhibition at each concentration point of the treatment were calculated. The percent of growth inhibition as defined as (1−T/C)×100 where T is the mean of the absorbance at 570 nm from the treatment, and C from control (drug vehicle only). IC50 was calculated using Sigma-plot software by regression of growth-concentration curve from each drug treatment.

HCC827-OR16 = experiment: qRT-PCR expression of p21; format: cell-based, human; conditions: HCC827-OR16, 24 h, q-RT-PCR
Description: FIG. 10 depicts the effect of Reno647 on expressions of Caspase 3, Caspase 9 and p21 in HCC827-P and on Box, Bcl2, p53 and p21 in HCC827-OR16 cells. […] Total cellular RNA was extracted and cDNA was prepared followed by qRT-PCR using specific probes as described in the section of Materials and Methods. Tgene ΔCt value was normalized for GAPDH by calculating ΔCt=Ctgene−CtGAPDH per sample.
HCC827 P or other indicated cells at exponential growth phase were treated with indicated concentrations of compounds for 24 hours. Total cellular RNA was prepared from lysed tumor cells using an RNA Purification kit (ThermoFisher Scientific). The first-strand of cDNA was synthesized using a High Capacity cDNA reverse transcription kit (ThermoFisher Scientific) in PTC-100 Peltier Thermal Cycler PCR. The resultant cDNA (0.5-1 μL) was used in a 10 μl reaction by using Taqman Universal PCR Master Mix (ThermoFisher Scientific). The pre-designed primers and probe were purchased from Life Technologies and used for qPCR. Human GAPDH was used as an internal control. qPCR was performed using Applied Biosystems StepOne and StepOnePlus Real-Time PCR Systems according manufacturer's instructions. An initial PCR denaturation step was performed at 95° C. for 20 seconds. […]

## C#Cc1cccc(Nc2ncnc3cc(OCCOC)c(NC(=O)c4ccc(F)c([N+](=O)[O-])c4)cc23)c1 [Reno647, 4-Fluoro-N-[4-(3-ethynyl-phenylamino)-7-(2-methoxy-ethoxy)-quinazolin-6-yl]-3-nitro-benzamide]
Tested cancer cell lines
  activities against all tested cancer cells lines compared with NK-2206 and MLN8237: better activities
HCC827-OR16
  p21 expression: significant induction
